Results taken from patent US12702715B2, “Targeted RNA degradation allows precision repurposing of protein-targeted small molecule medicines to RNA” (University of Florida Research Foundation, Incorporated, priority 2020, dated 2026).
“Also recorded” adds a separate entry of the source.

Legend:
Assay type in all cases: cell-based, human
miR-21 = assay: RT-qPCR of mature miR-21 levels in MDA-MB-231 cells
Method: Cell Culture. Cells were cultured at 37° C. and 5% CO2. […] For compound treatment, compound stocks either in DMSO or water were diluted in growth medium and added to cells for the indicated time. […] After transfection, the medium was replaced with growth medium containing the compound of interest, prepared as described above. The RNase L-targeting siRNA or a control siRNA was transfected with Lipofectamine RNAiMAX reagent (Invitrogen) per the manufacturer's protocol.
(§1) RNA Isolation and Quantitative Real-Time PCR (RT-qPCR). After treatment, total RNA was extracted and purified by using the Zymo Quick-RNA mini prep kit per the manufacturer's protocol. Reverse Transcription (RT) for mature miRNAs as well as pri- and pre-miR-21 was completed on 200 ng of RNA by using a miScript 11 RT kit (QIAGEN) according to manufacturer's protocol. RT of mRNAs was performed by using QScript kit (Quanta Bio). An Applied Biosystems QS5 384-well PCR system was used to complete qPCR experiments using Power Sybr Green Mater Mix (Life Technologies) as described previously^6.

pre-miR-21 [1] = assay: RT-qPCR of pre-miR-21 levels in MDA-MB-231 cells
Method: Cell Culture. Cells were cultured at 37° C. and 5% CO2. MDA-MB-231 cells (HTB-26, ATCC) were cultured in RMPI 1640 medium with L-glutamine & 25 mM HEPES supplemented with 1× Antibiotic/Antimycotic solution (Corning) and 10% FBS. MCF-10A cells (CRL-10317, ATCC) were cultured in 1×DMEM/F12 50/50 with L-glutamine & 15 mM HEPES (Corning) supplemented with 20% FBS, 1× Antibiotic/Antimycotic solution, 20 ng/mL human epidermal growth factor (Pepro Tech, Inc.), 10 μg/mL insulin (Sigma-Aldrich), and […] hydrocortisone (Pfaltz & Bauer). For compound treatment, compound stocks either in DMSO or water were diluted in growth medium and added to cells for the indicated time. Plasmid DNA to overexpress pre-miR-21 in pcDNA 3.1 (Addgene 21114) or a plasmid DNA encoding the pre-miR-21 mutant (custom purchased from GenScript USA, Inc.) was transfected with jetPRIME per the manufacturer's protocol. After transfection, the medium was replaced with growth medium containing the compound of interest, prepared as described above. The RNase L-targeting siRNA or a control siRNA was transfected with Lipofectamine RNAiMAX reagent (Invitrogen) per the manufacturer's protocol.
as §1

[2] = tested on: RTK / phosphorylation of ERK (pERK); assay: Western blot of ERK phosphorylation (functional RTK inhibition) in MDA-MB-231 cells
Method: Western Blotting. MDA-MB-231 cells were plated in 6-well plates. […] The cells were harvested by trypsinization, and total protein was extracted with MPER (Mammalian Protein Extraction Reagent, Thermo Scientific) as previously described^6. Protein concentrations were determined by using a Pierce Micro BCA Protein Assay kit (Fisher Scientific). […] ImageJ software was used for quantification of the protein bands. […] In each case, the secondary antibody was diluted two times more than the primary antibody.

pre-miR-21 [3] = assay: Cellular Chem-CLIP and C-Chem-CLIP to study occupancy of pre-miR-21; conditions: increasing concentrations, 4 constant
Method: Cellular Chem-CLIP and C-Chem-CLIP to Study Occupancy of pre-miR-2L MDA-MB-231 cells in 100 mm dishes (~90% confluency) were treated with 4 or 5 for 6 h at 37° C. Then the cells were washed with 1×DPBS and cross-linked under 365 nm light for 10 min in ice cold 1×DPBS. The cells were harvested by scraping and pelleted by centrifugation. Total RNA was extracted by using the miRNeasy mini kit (Qiagen) per the manufacturer's protocol. Approximately 50 μg of total RNA was clicked to disulfide biotin azide as described in the “In Vitro Chem-CLIP and Competitive Chem-CLIP (C-Chem-CLIP)” section. Streptavidin beads (10 μL) were added, and the samples were incubated, with shaking, for 2 h at 37° C. The beads were then washed with 1× Wash Buffer (10 mM Tris-HCl, pH 7.0, 4 M NaCl, 1 mM EDTA) three times and then once with nanopure water. Bound RNAs were eluted from the beads by incubating with 200 μL of 1:1 TCEP (200 mM) pre-reduced with 600 mM of K2CO3 for 30 min at 37° C. The reaction was quenched by treatment with an equal volume of 400 mM of iodoacetamide for 30 min at room temperature. The supernatant was collected, and the beads were washed once with nanopure water: the water was added to the eluant. The combined eluant was cleaned up using RNAClean XP beads according to the manufacturer's protocol. The obtained RNA was then subjected to RT-qPCR. Enrichment of pre-miR-21 was calculated as previously described^6. Cellular C-Chem-CLIP was completed by pre-treating with 1 (1 or 5 μM) or 3 (1 or 5 μM) for 6 h, followed by dosing with 4 (5 μM) for 6 h. Sample preparation and data analysis were completed as described above for cellular Chem-CLIP studies.

PTEN = PTEN luciferase assay; conditions: MDA-MB-231
Method: PTEN Luciferase Assay. To study de-repression of PTEN, a luciferase-based cellular assay was performed as previously described^6. Briefly, MDA-MB-231 cells (~60% confluency) in 48-well plates were co-transfected with plasmids encoding Renilla luciferase (for normalization) and firefly luciferase fused to the 3′ UTR of PTEN by using Lipofectamine 2000 according to the manufacturer's protocol. After 5 h, the cells were treated with the compounds diluted in growth medium. Luciferase assay were then completed as previously described^4, 9.

FLT3 = FLT3 degradation Western blot in MDA-MB-231 cells; conditions: MDA-MB-231
Method: In each case, the secondary antibody was diluted two times more than the primary antibody.

Q: How did the “fold increase in potency / miR-21 inhibitory activity compared with 1” value (miR-21; MDA-MB-231) turn out when `Cc1ncsc1-c1ccc(CNC(=O)[C@@H]2C[C@@H](O)CN2C(=O)[C@@H](NC(=O)NCCOCCOCCOCCOCCC(=O)NCCN2CCN(c3ccc4[nH]c(-c5c(N)c6c(F)cccc6[nH]c5=O)nc4c3)CC2)C(C)(C)C)cc1` [Compound 3, Protac-Dovitinib] was run?
A: similar

Q: And the “mature miR-21 levels” value (miR-21; MDA-MB-231, RT-qPCR)?
A: reduced

Q: And the pre-miR-21 levels (pre-miR-21 [1]; MDA-MB-231, RT-qPCR)?
A: increased; also recorded: boosted

Q: And the “competition of cleavage of pre-miR-21 by RIBOTAC 2” value (pre-miR-21 [1]; constant concentration of 2 (1 μM), increasing competitor)?
A: abated the cleavage

Q: And the “fold increase of RTK inhibition relative to 1” value [2]?
A: 5 fold

Q: And the IC50 ([2]; Homo sapiens, MDA-MB-231)?
A: 20 nM

Q: And the “inhibition of ERK phosphorylation compared to 1” value ([2]; Western blot)?
A: more potent than 1

Q: What about the “competition of pull-down of pre-miR-21 with 4” value (pre-miR-21 [3]) of the same compound?
A: similarly diminished

Q: What about the “PTEN expression (luciferase-based assay)” value (PTEN) of the same compound?
A: derepressed

Q: What about the “FLT3 levels / degradation” value (FLT3) of the same compound?
A: low nanomolar activity; also recorded: induced degradation of FLT3 in a dose-dependent manner
